These results are taken from PubChem BioAssay AID292 (DTP/NCI, 2004).

In this assay the test system is B6C3F1 mice, ip Sarcoma M5076, median survival T/C. The experiment in a line: NCI In Vivo Anticancer Drug Screen. Data for tumor model Sarcoma M5076 (intraperitoneal) in B6C3F1 mice. To be noted: endpoint: median survival time, higher = longer survival. The procedure, abridged:
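Survival measured in treated (T) and vehicle control (C) mice with transplantable tumour; result given as T divided by C.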

Where [1] appears, read: dose: 50.0 mg/kg/injection, schedule: Q04DX004 (ip), vehicle: saline with Tween-80.
Where [2] appears, read: dose: 100.0 mg/kg/injection, schedule: Q04DX004 (ip), vehicle: saline with Tween-80.
Where [3] appears, read: dose: 200.0 mg/kg/injection, schedule: Q04DX004 (ip), vehicle: saline with Tween-80.
Setting [4] is: dose: 400.0 mg/kg/injection, schedule: Q04DX004 (ip), vehicle: saline with Tween-80.
The mark [5] stands for this setting: dose: 800.0 mg/kg/injection, schedule: Q04DX004 (ip), vehicle: saline with Tween-80.
Setting [6] is: dose: 25.0 mg/kg/injection, schedule: Q04DX004 (ip), vehicle: saline with Tween-80.
[7] abbreviates: dose: 18.75 mg/kg/injection, schedule: Q04DX004 (ip), vehicle: saline with Tween-80.
The mark [8] stands for this setting: dose: 37.5 mg/kg/injection, schedule: Q04DX004 (ip), vehicle: saline with Tween-80.
Where [9] appears, read: dose: 75.0 mg/kg/injection, schedule: Q04DX004 (ip), vehicle: saline with Tween-80.
Setting [10] is: dose: 150.0 mg/kg/injection, schedule: Q04DX004 (ip), vehicle: saline with Tween-80.
[11] abbreviates: dose: 300.0 mg/kg/injection, schedule: Q04DX004 (ip), vehicle: saline with Tween-80.

Where “and” joins values, the source holds several entries; their conditions need not be identical. Equal values may be shown once. Inconclusive results and toxic doses are left out.

With `C=C(Cl)C(=NC(C)(C)C)Nc1ccccc1C`, the T/C by setting is: (dose: 3.0 mg/kg/injection, schedule: Q04DX004 (ip), vehicle: Klucel (hydroxypropylcellulose) (HPC)) 98 % of control; (dose: 6.0 mg/kg/injection, schedule: Q04DX004 (ip), vehicle: Klucel (hydroxypropylcellulose) (HPC)) 116 % of control; (dose: 6.25 mg/kg/injection, schedule: Q04DX004 (ip), vehicle: Klucel (hydroxypropylcellulose) (HPC)) 108 % of control; (dose: 12.0 mg/kg/injection, schedule: Q04DX004 (ip), vehicle: Klucel (hydroxypropylcellulose) (HPC)) 103 % of control; (dose: 24.0 mg/kg/injection, schedule: Q04DX004 (ip), vehicle: Klucel (hydroxypropylcellulose) (HPC)) 98 % of control; (dose: 25.0 mg/kg/injection, schedule: Q04DX004 (ip), vehicle: Klucel (hydroxypropylcellulose) (HPC)) 117 % of control. For the same compound, the T/C (dose: 48.0 mg/kg/injection, schedule: Q04DX004 (ip), vehicle: Klucel (hydroxypropylcellulose) (HPC)) is 104 % of control.
Take `Oc1ccc(/C=N/N=C/c2ccc(O)c(O)c2)cc1O`: the T/C is, setting by setting: under setting [1], 98 % of control; under setting [2], 95 % of control; under setting [3], 95 % of control; under setting [4], 93 % of control; under setting [5], 107 % of control.
As for `O=c1[nH]cnc2n[nH]nc12`, the T/C is, setting by setting: (dose: 75.0 mg/kg/injection, schedule: Q04DX004 (ip), vehicle: Klucel (hydroxypropylcellulose) (HPC)) 104 % of control; (dose: 150.0 mg/kg/injection, schedule: Q04DX004 (ip), vehicle: Klucel (hydroxypropylcellulose) (HPC)) 94 % of control; (dose: 300.0 mg/kg/injection, schedule: Q04DX004 (ip), vehicle: Klucel (hydroxypropylcellulose) (HPC)) 97 % of control; (dose: 600.0 mg/kg/injection, schedule: Q04DX004 (ip), vehicle: Klucel (hydroxypropylcellulose) (HPC)) 95 % of control.
Turning to `Cc1ccc(C(=Nc2ccccc2)N=P(c2ccccc2)(c2ccccc2)c2ccccc2)cc1`, the T/C under setting [6] was 106 % of control and the T/C under setting [1] was 93 % of control.
In the case of `CS(=O)(=O)OCCCNCCCOS(C)(=O)=O`, the T/C is, setting by setting: (dose: 10.0 mg/kg/injection, schedule: Q04DX005 (ip), vehicle: saline) 150 % of control; (dose: 20.0 mg/kg/injection, schedule: Q04DX005 (ip), vehicle: saline) 185 % of control; (dose: 40.0 mg/kg/injection, schedule: Q04DX005 (ip), vehicle: saline) 319 % of control; (dose: 80.0 mg/kg/injection, schedule: Q04DX005 (ip), vehicle: saline) 319 % of control.
With `OCCN1CCN(CC/C=C2/c3ccccc3Sc3ccc(C(F)(F)F)cc32)CC1`, the T/C runs as follows: (dose: 6.25 mg/kg/injection, schedule: Q04DX004 (ip), vehicle: saline) 108 % of control; (dose: 12.5 mg/kg/injection, schedule: Q04DX004 (ip), vehicle: saline) 100 % of control; (dose: 25.0 mg/kg/injection, schedule: Q04DX004 (ip), vehicle: saline) 108 % of control; (dose: 50.0 mg/kg/injection, schedule: Q04DX004 (ip), vehicle: saline) 112 % of control.
For `O=S(=O)(O)O`, the T/C was 103 % of control (dose: 30.0 mg/kg/injection, schedule: Q01DX009 (ip), vehicle: water) and 96 % of control (dose: 44.0 mg/kg/injection, schedule: Q01DX009 (ip), vehicle: water).
Consider `Clc1ccccc1C(Nc1cnccn1)Nc1cnccn1`, for which the T/C by setting is: under setting [1], 105 % of control and 112 % of control; under setting [2], 105 % of control; under setting [3], 103 % of control and 109 % of control; under setting [4], 110 % of control and 114 % of control; under setting [5], 100 % of control.
With `N#CC1C(=O)NC(=S)NC1c1ccc(Cl)cc1` (configuration not stated), the T/C reads like this: (dose: 50.0 mg/kg/injection, schedule: Q04DX004 (ip), vehicle: Klucel (hydroxypropylcellulose) (HPC)) 103 % of control; (dose: 100.0 mg/kg/injection, schedule: Q04DX004 (ip), vehicle: Klucel (hydroxypropylcellulose) (HPC)) 100 % of control.
Regarding `Cc1c2ccccc2c(C)c2c1cc(C(=O)O)c1ccccc12`, the T/C is 113 % of control (dose: 12.5 mg/kg/injection, schedule: Q04DX004 (ip), vehicle: sodium bicarbonate); 113 % of control (dose: 25.0 mg/kg/injection, schedule: Q04DX004 (ip), vehicle: sodium bicarbonate); 113 % of control (dose: 50.0 mg/kg/injection, schedule: Q04DX004 (ip), vehicle: sodium bicarbonate); 124 % of control (dose: 200.0 mg/kg/injection, schedule: Q04DX004 (ip), vehicle: sodium bicarbonate).
On to `O=c1c2ccccc2nc(-c2ccccc2)n1-c1nccs1`, for which the T/C runs as follows: under setting [6], 94 % of control; under setting [3], 89 % of control; under setting [4], 90 % of control.
Regarding `CCN(CC)Cc1cc2[nH]c3c4ccc(Cl)cc4ncc3c2cc1OC` (tested in a mixture with another compound), the T/C was 104 % of control under setting [7]; 117 % of control under setting [6]; 112 % of control under setting [8]; 110 % of control under setting [1]; 99 % of control under setting [9]; 105 % of control under setting [2].
`CCn1c2ccccc2c2c3ncc4cccn4c3ccc21`: the T/C by setting is: under setting [8], 96 % of control; under setting [9], 96 % of control; under setting [10], 93 % of control; under setting [11], 92 % of control; (dose: 600.0 mg/kg/injection, schedule: Q04DX004 (ip), vehicle: saline with Tween-80) 89 % of control.
For `O=C1C(=O)N(c2ccccc2Cl)C(=O)N1Cc1ccccc1`, the T/C reads like this: (dose: 43.75 mg/kg/injection, schedule: Q04DX004 (ip), vehicle: Klucel (hydroxypropylcellulose) (HPC)) 102 % of control; (dose: 87.5 mg/kg/injection, schedule: Q04DX004 (ip), vehicle: Klucel (hydroxypropylcellulose) (HPC)) 98 % of control; (dose: 175.0 mg/kg/injection, schedule: Q04DX004 (ip), vehicle: Klucel (hydroxypropylcellulose) (HPC)) 109 % of control; (dose: 350.0 mg/kg/injection, schedule: Q04DX004 (ip), vehicle: Klucel (hydroxypropylcellulose) (HPC)) 94 % of control; (dose: 700.0 mg/kg/injection, schedule: Q04DX004 (ip), vehicle: Klucel (hydroxypropylcellulose) (HPC)) 93 % of control.
`CC[C@@]1(O)C(=O)OCc2c1cc1n(c2=O)Cc2cc3c(N)cccc3nc2-1`: the T/C reads like this: (dose: 0.25 mg/kg/injection, schedule: Q04DX004 (ip), vehicle: saline with Tween-80) 121 % of control; (dose: 1.0 mg/kg/injection, schedule: Q04DX004 (ip), vehicle: saline with Tween-80) 164 % of control and 168 % of control; (dose: 2.0 mg/kg/injection, schedule: Q04DX004 (ip), vehicle: saline with Tween-80) 208 % of control; (dose: 4.0 mg/kg/injection, schedule: Q04DX004 (ip), vehicle: saline with Tween-80) 177 % of control.
Turning to `N=C1C=CC2C(=Nc3ccccc3[N+]2=O)N1Cc1ccncc1` (configuration not stated), the T/C runs as follows: under setting [7], 95 % of control; under setting [8], 93 % of control; under setting [9], 91 % of control; under setting [10], 87 % of control; under setting [11], 87 % of control.
With `CC[C@@]1(O)C(=O)OCc2c1cc1n(c2=O)Cc2cc3cc(O)ccc3nc2-1`, the T/C reads like this: (dose: 0.86 mg/kg/injection, schedule: Q04DX004 (ip), vehicle: suspension in saline) 104 % of control; (dose: 1.44 mg/kg/injection, schedule: Q04DX004 (ip), vehicle: suspension in saline) 109 % of control; (dose: 1.88 mg/kg/injection, schedule: Q04DX004 (ip), vehicle: suspension in saline) 106 % of control; (dose: 2.4 mg/kg/injection, schedule: Q04DX004 (ip), vehicle: suspension in saline) 115 % of control; (dose: 3.75 mg/kg/injection, schedule: Q04DX004 (ip), vehicle: suspension in saline) 162 % of control; (dose: 6.67 mg/kg/injection, schedule: Q04DX004 (ip), vehicle: suspension in saline) 116 % of control.
Take `CC(/C=C/C1OC(=O)C=CC1C)=C\C(C)C/C=C/C(C)=C/C(C)C(=O)C(C)C(O)C(C)C/C(C)=C/C(=O)O` (configuration not stated): the T/C reads like this: (dose: 25.0 micrograms/kg/injection, schedule: Q04DX004 (ip), vehicle: saline + alcohol) 118 % of control; (dose: 50.0 micrograms/kg/injection, schedule: Q04DX004 (ip), vehicle: saline + alcohol) 150 % of control; (dose: 100.0 micrograms/kg/injection, schedule: Q04DX004 (ip), vehicle: saline + alcohol) 123 % of control; (dose: 400.0 micrograms/kg/injection, schedule: Q04DX004 (ip), vehicle: saline + alcohol) 177 % of control.
